Source: patent publication US20220235073A1, “ARTEMISININ-DERIVATIVE N-HETEROCYCLIC CARBENE GOLD(I) HYBRID COMPLEXES” (CENTRE NATIONAL DE LA RECHERCHE SCIENTIFIQUE, priority 2019, published 2022)

Columns and labels:
[1] = system: RWPE-1 human prostate normal cells; assay: Cell viability MTT assay, RWPE-1; assay type: cell-based; settings: for GI50: 72 h, MTT assay; for Selectivity index RWPE-1: SI = GI50 (RWPE-1)/GI50 (PC-3)
Procedure: (§1) HepG-2 human liver cancer cells were cultured in EMEM containing 10% of FBS, 1% of nonessential amino acids, 1 mM of Na-pyruvate, 1% of PenStrep antibiotics and 600 μg/mL of Geneticin. A549 human lung carcinoma cells, T24 human bladder carcinoma cells, MCF-7 human breast adenocarcinoma cells, U-2OS human osteosarcoma and NIH3T3 murine fibroblast cells were cultured in DMEM medium containing 10% fetal bovine serum and 1% antibiotics at 37° C. in 5% CO2 humidified incubators. MC3T3 mouse osteoblast cells were cultured in MEM medium containing 10% fetal bovine serum and 1% antibiotics at 37° C. in 5% CO2 humidified incubators. RWPE-1 human prostate normal cells were cultured in K-SFM medium containing 0.05 mg/ml bovine pituitary extract (BPE) and 5 ng/ml epidermal growth factor (EGF) at 37° C. in 5% CO2 humidified incubators. The MTT reagent (3-(4,5-dimethylthiazol-2-yl)-2,5-diphenyltetrazolium bromide) was used to determine cell death as originally described by Mosmaneland modified by Cuvillier et al.^[6] Briefly, cells were seeded 5,000 to 10,000 cells/well in 24-well plates depending on the cell type and allowed to attach overnight. All of the complexes were dissolved in DMSO. The concentration of the complexes was calculated according to the elemental composition of the complexes determined by the elemental analyses. Media in the presence of the tested complexes were added and serially diluted to various concentrations (from 5 μM to 0.01 μM). Next to these concentrations, for DHA 50, 20 and 10 μM and for the cationic bisNHC gold(I) complex 3 0.001 μM have been used. […] After 72 h of treatment, cells were incubated at 37° C. and 5% CO2 with 25 μL MTT solution (5 mg/mL; Sigma-Aldrich) in 24-well plates for approximately 3 to 4 h. After solubilization with 500 μL of lysis buffer (DMSO), formazan was quantified by spectrophotometry with a microplate reader at 570 nm absorbance. […] All the results were calculated from data obtained in three independent experiments.

[2] = system: HepG-2 human liver cancer cells; assay: Cell viability MTT assay, HepG-2; assay type: cell-based; settings: 72 h
Procedure: (§2) PC-3 human prostate cancer cells, and LAMA chronic myeloid leukemia were cultured in RPMI 1640 containing 10% fetal bovine serum and 1% antibiotics (100 U/mL penicillin and 100 μg/mL streotimycin) at 37° C. in 5% CO2 humidified incubators. HL60 […] were cultured in RPMI 1640 containing 15% fetal bovine serum and 1% antibiotics (100 U/mL penicillin and 100 μg/mL streotimycin) at 37° C. in 5% CO2 humidified incubators. HepG-2 human liver cancer cells were cultured in EMEM containing 10% of FBS, 1% of nonessential amino acids, 1 mM of Na-pyruvate, 1% of PenStrep antibiotics and 600 μg/mL of Geneticin. A549 human lung carcinoma cells, T24 human bladder carcinoma cells, MCF-7 human breast adenocarcinoma cells, U-2OS human osteosarcoma and NIH3T3 murine fibroblast cells were cultured in DMEM medium containing 10% fetal bovine serum and 1% antibiotics at 37° C. in 5% CO2 humidified incubators. MC3T3 mouse osteoblast cells were cultured in MEM medium containing 10% fetal bovine serum and 1% antibiotics at 37° C. in 5% CO2 humidified incubators. RWPE-1 human prostate normal cells were cultured in K-SFM medium containing 0.05 mg/ml bovine pituitary extract (BPE) and 5 ng/ml epidermal growth factor (EGF) at 37° C. in 5% CO2 humidified incubators. The MTT reagent (3-(4,5-dimethylthiazol-2-yl)-2,5-diphenyltetrazolium bromide) was used to determine cell death as originally described by Mosmaneland modified by Cuvillier et al.^[6] Briefly, cells were seeded 5,000 to 10,000 cells/well in 24-well plates depending on the cell type and allowed to attach overnight. All of the complexes were dissolved in DMSO. The concentration of the complexes was calculated according to the elemental composition of the complexes determined by the elemental analyses. […] After solubilization with 500 μL of lysis buffer (DMSO), formazan was quantified by spectrophotometry with a microplate reader at 570 nm absorbance. […] All the results were calculated from data obtained in three independent experiments.

[3] = system: U-2OS human osteosarcoma; assay: Cell viability MTT assay, U-2OS; assay type: cell-based
Procedure: (§3) PC-3 human prostate cancer cells, and LAMA chronic myeloid leukemia were cultured in RPMI 1640 containing 10% fetal bovine serum and 1% antibiotics (100 U/mL penicillin and 100 μg/mL streotimycin) at 37° C. in 5% CO2 humidified incubators. HL60 […] were cultured in RPMI 1640 containing 15% fetal bovine serum and 1% antibiotics (100 U/mL penicillin and 100 μg/mL streotimycin) at 37° C. in 5% CO2 humidified incubators. HepG-2 human liver cancer cells were cultured in EMEM containing 10% of FBS, 1% of nonessential amino acids, 1 mM of Na-pyruvate, 1% of PenStrep antibiotics and 600 μg/mL of Geneticin. A549 human lung carcinoma cells, T24 human bladder carcinoma cells, MCF-7 human breast adenocarcinoma cells, U-2OS human osteosarcoma and NIH3T3 murine fibroblast cells were cultured in DMEM medium containing 10% fetal bovine serum and 1% antibiotics at 37° C. in 5% CO2 humidified incubators. MC3T3 mouse osteoblast cells were cultured in MEM medium containing 10% fetal bovine serum and 1% antibiotics at 37° C. in 5% CO2 humidified incubators. RWPE-1 human prostate normal cells were cultured in K-SFM medium containing 0.05 mg/ml bovine pituitary extract (BPE) and 5 ng/ml epidermal growth factor (EGF) at 37° C. in 5% CO2 humidified incubators. The MTT reagent (3-(4,5-dimethylthiazol-2-yl)-2,5-diphenyltetrazolium bromide) was used to determine cell death as originally described by Mosmaneland modified by Cuvillier et al.^[6] Briefly, cells were seeded 5,000 to 10,000 cells/well in 24-well plates depending on the cell type and allowed to attach overnight. All of the complexes were dissolved in DMSO. The concentration of the complexes was calculated according to the elemental composition of the complexes determined by the elemental analyses. Media in the presence of the tested complexes were added and serially diluted to various concentrations (from 5 μM to 0.01 μM). Next to these concentrations, for DHA 50, 20 and 10 μM and for the cationic bisNHC gold(I) complex 3 0.001 μM have been used. […] After 72 h of treatment, cells were incubated at 37° C. and 5% CO2 with 25 μL MTT solution (5 mg/mL; Sigma-Aldrich) in 24-well plates for approximately 3 to 4 h. After solubilization with 500 μL of lysis buffer (DMSO), formazan was quantified by spectrophotometry with a microplate reader at 570 nm absorbance. The GI50 values corresponding to the concentration that caused 50% inhibition of cell proliferation were calculated from dose-response curves obtained by nonlinear regression analysis (Prism 8, Graphpad Software). All the results were calculated from data obtained in three independent experiments.

[4] = system: NIH3T3 murine fibroblast cells; assay: Cell viability MTT assay, NIH3T3; assay type: cell-based; settings: for GI50: 72 h, MTT assay; for Selectivity index NIH3T3: SI = GI50 (non-cancer cell line NIH3T3)/GI50 (cancer cell line PC-3)
Procedure: as §1

[5] = system: MCF-7 human breast adenocarcinoma cells; assay: Cell viability MTT assay, MCF-7; assay type: cell-based
Procedure: as §3

[6] = system: Tumor cell models; assay: MTT assay, panel of tumor cell models; assay type: cell-based, human; settings: mean of PC-3, A549, U2OS, T24, MCF-7, LAMA, HL60
Procedure: as §2

[7] = system: T24 human bladder carcinoma cells; assay: Cell viability MTT assay, T24; assay type: cell-based
Procedure: as §3

[8] = system: HL60 (acute myeloid leukemia); assay: Cell viability MTT assay, HL60; assay type: cell-based
Procedure: as §3

[9] = system: A549 human lung carcinoma cells; assay: Cell viability MTT assay, A549; assay type: cell-based
Procedure: as §3

[10] = system: LAMA chronic myeloid leukemia; assay: Cell viability MTT assay, LAMA; assay type: cell-based, human
Procedure: as §3

[11] = system: MC3T3 mouse osteoblast cells; assay: Cell viability MTT assay, MC3T3; assay type: cell-based
Procedure: as §3

[12] = system: NF-κB transcription factor induced by TNFalpha; assay: NF-kB transcriptional activity, NF-kB Reporter (Luc)-A549 stable cell line; assay type: cell-based, human; settings: NF-kB Reporter A549 cells, 1 ng/ml TNFα, 7 hours; read-out: IC50, inhibition of NF-κB transcription factor induced by TNFalpha
Procedure: The NF-kB Reporter (Luc)—A549 Stable Cell Line was used to quantify the inhibitory effects of the indicated doses of the molecules of the invention on transcriptional activity of NF-kB activated by 1 ng/ml TNFα (7 hours of treatment).
Luminescence was read using a luminometer and readings were normalized to wells that only contain media to obtain the Relative Luminescence Units (RLUs).
9. NF-kB Transcriptional Activity

[13] = system: PC-3 human prostate cancer cells; assay: Cell viability MTT assay, PC-3; assay type: cell-based; settings: for GI50: 72 h, MTT assay
[14] = system: Non tumoral cell models (MC3-T3, NIH3T3, RWPE1); assay: MTT assay, mean over non tumoral cell models; assay type: cell-based; settings: mean of MC3-T3, NIH3T3, RWPE1
Procedure: as §2

[15] = system: Nrf2; assay: NRF2 transcriptional activity, ARE Reporter Hep G2 cell line; assay type: cell-based, human; settings: ARE Reporter Hep G2 cells, 16 hours, any dose
Procedure: The ARE Reporter Hep G2 cell line containing a firefly luciferase gene under the control of ARE stably integrated into Hep G2 cells was used to quantify NRF2 transcriptional activity after 16 hours of treatment with the indicated doses of the different complexes. The results are shown as fold induction of ARE luciferase reporter expression. Dashed line indicates a fold induction of 1 (values >1 mean activation and values <1 mean inhibition).
ARE-reporter-HepG-2 cells were harvested from culture in Growth Medium 1K and they were seeded at a concentration of 40,000 cells/well into white clear-bottom 96-well microplate in 45 μL of Growth Medium 1K without Geneticin. Cells were allowed to attach overnight and then treated with different concentrations of complex 2a (from 0.01 μM to 20 μM), auranofin (from 0.01 μM to 20 μM) or DHA (from 0.01 μM to 3, 5, 10, 20 and 50 μM), and complex (from 0.01 μM to 20 μM). After incubation at 37° C. and 5% CO2 for 16 hours, ONE-Step luciferase assay reagent (100 μL) was added and rock at room temperature for over 15 minutes. Then the luminescence of each well was determined by CLARIOstar microplate reader to quantify induction of ARE. Three independent experiments were performed as biological triplicates. The results are in FIG. 4.

[16] = ratio of IC50, tumoral versus non tumoral cells of same tissue

Molecule: C[C@@H]1CCC2[C@@H](C)[C@@H](OCCCn3cc[n+](C)[c]3[Au-][c]3n(CCCO[C@H]4O[C@@H]5O[C@]6(C)CCC7[C@H](C)CCC([C@H]4C)[C@]75OO6)cc[n+]3C)O[C@@H]3O[C@]4(C)CCC1[C@@]23OO4.O=[N+]([O-])[O-] (some centres unmarked) [Compound 2a]
- GI50 [1]: 480 nM
- Selectivity index RWPE-1 [1]: 6.9
- IC50 ([1]; Table 3, non tumoral cell model, read-out: IC50 RWPE1 (prostatic epithelial cells)): 480 nM
- Specificity Prostate: RWPE1 (normal immortalized)/PC-3 (tumoral) [1, 16]: 6.9
- SI PC-3/RPWE-1 value, times higher than Auranofin ([1]; ratio of SI): 69 times
- SI PC-3/RPWE-1 value, times higher than complex 3 ([1]; ratio of SI): 35 times
- GI50 [2]: 2430 nM
- GI50 ([3]; 72 h, MTT assay, read-out: GI50 U2OS): 120 nM
- IC50 ([3]; Table 3, tumor cell model, read-out: IC50 U2OS (bone tumor)): 122 nM
- GI50 [4]: 1130 nM
- Selectivity index NIH3T3 [4]: 16.1
- IC50 ([4]; Table 3, non tumoral cell model, read-out: IC50 NIH3T3 (fibroblasts)): 1130 nM
- GI50 ([5]; 72 h, MTT assay): 90 nM
- IC50 ([5]; Table 3, tumor cell model): 89 nM
- IC50 [6]: 96 nM
- GI50 ([7]; 72 h, MTT assay): 170 nM
- IC50 ([7]; Table 3, tumor cell model): 175 nM
- GI50 ([8]; 72 h, MTT assay): 22 nM
- IC50 ([8]; Table 3, tumor cell model): 22 nM
- GI50 ([9]; 72 h, MTT assay): 110 nM
- IC50 ([9]; Table 3, tumor cell model): 115 nM
- GI50 ([10]; 72 h, MTT assay): 80 nM
- IC50 ([10]; Table 3, tumor cell model): 79 nM
- GI50 ([11]; 72 h, MTT assay): 1620 nM
- Selectivity index MC3T3 ([11]; SI = GI50 (MC3T3)/GI50 (PC-3)): 23.1
- IC50 ([11]; Table 3, non tumoral cell model, read-out: IC50 MC3-T3 (osteoblasts)): 1620 nM
- Specificity Bone: MC3-T3 (normal immortalized)/U2OS (tumoral) [11, 16]: 13.3
- IC50 [12]: ~615 nM
- GI50 [13]: 70 nM
- IC50 ([13]; Table 3, tumor cell model): 70 nM
- IC50 [14]: 1080 nM

Molecule: 3′-methyl-1′-[10β-(22-pentoxy)dihydroartemisin]1H-imidazol-3-ium bromide [Compound 1c]
- GI50 [1]: 3740 nM
- GI50 [4]: > 20000 nM
- GI50 [13]: > 20000 nM

Molecule: 3′-methyl-1′-[10β-(20-propoxy)dihydroartemisin]1H-imidazol-3-ium bromide [Compound 1a]
- GI50 [1]: > 20000 nM
- GI50 [4]: > 20000 nM
- GI50 [13]: > 20000 nM

Molecule: C[C@@H]1CC[C@H]2[C@@H](C)C(=O)O[C@@H]3O[C@@]4(C)CC[C@@H]1[C@]32OO4 [artemisinin]
- Effect on activity of Nrf2 [15]: activate

Molecule: CN1C=CN(c2ccc3ccccc3n2)[CH]1[Au-][CH]1N(C)C=CN1c1ccc2ccccc2n1 (centres unmarked) [Compound 3]
- Effect on activity of Nrf2 [15]: activate

Molecule: C[C@@H]1CCC2[C@@H](C)[C@@H](OCCCCn3cc[n+](C)[c]3[Au-][c]3n(CCCCO[C@H]4O[C@@H]5O[C@]6(C)CCC7[C@H](C)CCC([C@H]4C)[C@]75OO6)cc[n+]3C)O[C@@H]3O[C@]4(C)CCC1[C@@]23OO4.[Cl-] (some centres unmarked) [Compound 2b]
- GI50 [1]: 110 nM
- Selectivity index RWPE-1 [1]: 2.6
- GI50 [4]: 700 nM
- Selectivity index NIH3T3 [4]: 16.7
- GI50 [13]: 42 nM

Molecule: 3′-methyl-1′-[10β-(21-butoxy)dihydroartemisin]1H-imidazol-3-ium bromide [Compound 1b]
- GI50 [1]: > 20000 nM
- GI50 [4]: > 20000 nM
- GI50 [13]: > 20000 nM
